Measured values reported in ChEMBL document CHEMBL5113542, “Highly Potent and Oral Macrocyclic Peptides as a HIV-1 Protease Inhibitor: mRNA Display-Derived Hit-to-Lead Optimization” (ACS Med Chem Lett, 2022).
Starred links: 1 amine or outer side, 2 acyl side, 3 side chain; linkers in the order of their positions; H or OH if unused. Positions of bridges follow the written chain, without caps; N, C: chain ends. Non-standard residues stand in square brackets, D forms with d. Residues, ends and D or L forms follow the SMILES beside them. X3 = O=C([C@H](CCC1=CCC(F)(F)CC1)N[*:1])[*:2]; Trp(1-Me) = Cn1cc(C[C@H](N)C(=O)O)c2ccccc21; 1Nal = N[C@@H](Cc1cccc2ccccc12)C(=O)O; NHCH2CH2SCH2CO = O=C(CSCCN[*:1])[*:2]; NMeF = CN[C@@H](Cc1ccccc1)C(=O)O; hCha = N[C@@H](CCC1CCCCC1)C(=O)O; hPhe = N[C@@H](CCc1ccccc1)C(=O)O; X1 = CC(C)(CN[*:1])SCC(=O)[*:2]; X2 = CC(C)(SCCN[*:1])C(=O)[*:2]; Pen = CC(C)(S)[C@H](N)C(=O)O; αMeV = CC(C)[C@](C)(N)C(=O)O; αMeP = C[C@@]1(C(=O)O)CCCN1

How the values were obtained:
[1] = test system: Human immunodeficiency virus 1; assay: Anti-HIV activity against HIV-1 3B strain infected in human MT4 cells assessed as inhibition of virus-induced cell death preincubated with compound for 1 hrs followed by viral infection and measured after 4 days by MTT assay; type: functional, organism-based; settings: Human immunodeficiency virus 1, 3B
[2] = target: Human immunodeficiency virus type 1 protease (Human immunodeficiency virus 1, UniProt Q72874); assay: Inhibition of HIV-1 protease using EDANS-RESGIFLETSKR-DABCYL as substrate preincubated for 15 mins followed by substrate addition and measured after 60 mins by fluorescence based assay
[3] = Metabolic stability in human liver S9 fraction incubated for 60 mins by LC-MS/MS analysis; type: ADME, subcellular; settings: read-out: Stability
[4] = Half-life in Sprague-Dawley rat at 2 umol/kg, po or 1 umol/kg, iv administered as single dose by LC-MS/MS analysis; type: ADME, organism-based; settings: in vivo, dose 2 µmol/kg
[5] = Unbound fraction in rat serum measured after 24 hrs by equilibrium dialysis based LC-MS/MS analysis; type: ADME, cell-free
[6] = Volume of distribution at steady state in Sprague-Dawley rat at 2 umol/kg, po or 1 umol/kg, iv administered as single dose by LC-MS/MS analysis; type: ADME, organism-based; settings: in vivo, dose 1 µmol/kg
[7] = Metabolic stability in human liver microsomes incubated for 30 mins in the presence of NADPH by LC-MS/MS analysis; type: ADME, Microsome; settings: read-out: Stability
[8] = Metabolic stability in rat liver microsomes incubated for 30 mins in the presence of NADPH by LC-MS/MS analysis; type: ADME, Microsome; settings: read-out: Stability
[9] = Oral bioavailability in Sprague-Dawley rat at 2 umol/kg administered as single dose by LC-MS/MS analysis; type: ADME, organism-based; settings: in vivo, at 2 µmol/kg
[10] = Solubility of the compound at pH 6.8 incubated for 1 hrs in the presence of taurocholic acid by UHPLC/MS analysis; type: physicochemical; settings: medium containing taurocholic acid

| Compound | EC50 [1] [nM] | IC50 [2] [nM] | remaining at 1 h [3] [%] | half-life [4] [h] | fraction unbound at 24 h [5] | Vdss [6] [L/kg] | remaining at 0.5 h [7] [%] | remaining at 0.5 h [8] [%] | bioavailability [9] [%] | solubility at 1 h [10] [µM] |
| --- | --- | --- | --- | --- | --- | --- | --- | --- | --- | --- |
| CC(C)C[C@@H]1NC(=O)[C@H](C(C)C)NC(=O)[C@]2(C)CCCN2C(=O)[C@H](C(C)C)NC(=O)[C@H](Cc2ccccc2)NC(=O)CSCCNC(=O)[C@H](Cc2ccccc2)N(C)C(=O)[C@H](CC(C)C)NC(=O)[C@H](CCC2CCCCC2)NC1=O (cyclo(FV[αMeP]VL[hCha]L[NMeF][NHCH2CH2SCH2CO])) | 12 | 0.29 |  |  |  |  |  |  |  |  |
| CC(C)C[C@@H]1NC(=O)[C@H](C(C)C)NC(=O)[C@@H]2CCCN2C(=O)[C@H](C(C)C)NC(=O)[C@H](Cc2ccccc2)NC(=O)CSCCNC(=O)[C@H](Cc2ccccc2)N(C)C(=O)[C@H](CC(C)C)NC(=O)[C@H](Cc2cccc3ccccc23)NC1=O (cyclo([1Nal]L[NMeF][NHCH2CH2SCH2CO]FVPVL)) | 320 | 0.68 | 46 |  |  |  |  |  |  |  |
| CC(C)C[C@@H]1NC(=O)[C@H](C(C)C)NC(=O)[C@@H]2CCCN2C(=O)[C@H](C(C)C)NC(=O)[C@H](Cc2ccccc2)NC(=O)CSCCNC(=O)[C@H](Cc2ccccc2)N(C)C(=O)[C@H](CC(C)C)NC(=O)[C@H](Cc2cn(C)c3ccccc23)NC1=O (cyclo(FVPVL[Trp(1-Me)]L[NMeF][NHCH2CH2SCH2CO])) | 1500 | 7.86 |  |  |  |  |  |  |  |  |
| CC(C)C[C@@H]1NC(=O)[C@H](C(C)C)NC(=O)[C@]2(C)CCCN2C(=O)[C@H](C(C)C)NC(=O)[C@H](Cc2ccccc2)NC(=O)CSC(C)(C)CNC(=O)[C@H](C)NC(=O)[C@H](Cc2ccccc2)N(C)C(=O)[C@H](CC(C)C)NC(=O)[C@H](CCC2CCCCC2)NC1=O (cyclo(A[X1]FV[αMeP]VL[hCha]L[NMeF])) | 11 | 0.62 |  | 2 | 0.001 | 0.7 | 20 | 60 | 0.2 |  |
| COC(=O)[C@H]1NC(=O)[C@H](C)NC(=O)[C@H](Cc2ccccc2)N(C)C(=O)[C@H](CC(C)C)NC(=O)[C@H](CCC2CCCCC2)NC(=O)[C@H](CC(C)C)NC(=O)[C@H](C(C)C)NC(=O)[C@]2(C)CCCN2C(=O)[C@H](C(C)C)NC(=O)[C@H](Cc2ccccc2)NC(=O)CSC1(C)C ({CH2CO}-FV[αMeP]VL[hCha]L[NMeF]A[Pen]-OMe; thioether N-10) | 37 | 3.52 |  | 3.9 | 0.001 | 1.9 | 23 | 63 | 3.3 | 10 |
| CC(C)C[C@@H]1NC(=O)[C@](C)(C(C)C)NC(=O)[C@@H]2CCCN2C(=O)[C@H](C(C)C)NC(=O)[C@H](Cc2ccccc2)NC(=O)CSCCNC(=O)[C@H](Cc2ccccc2)N(C)C(=O)[C@H](CC(C)C)NC(=O)[C@H](Cc2cccc3ccccc23)NC1=O (cyclo([1Nal]L[NMeF][NHCH2CH2SCH2CO]FVP[αMeV]L)) | 120 | 0.44 | 69 |  |  |  |  |  |  |  |
| CC(C)C[C@@H]1NC(=O)[C@H](C(C)C)NC(=O)[C@@H]2CCCN2C(=O)[C@H](C(C)C)NC(=O)[C@H](Cc2ccccc2)NC(=O)CSCCNC(=O)CNC(=O)[C@H](Cc2ccccc2)N(C)C(=O)[C@H](CC(C)C)NC(=O)[C@H](Cc2c[nH]c3ccccc23)NC1=O (cyclo(FVPVLWL[NMeF]G[NHCH2CH2SCH2CO])) | 960 | 0.99 | 23 | 0.7 | 0.011 | 0.1 | 3 | 29 |  | 26 |
| CC(C)C[C@@H]1NC(=O)[C@H](C(C)C)NC(=O)[C@]2(C)CCCN2C(=O)[C@H](C(C)C)NC(=O)[C@H](Cc2ccccc2)NC(=O)C(C)(C)SCCNC(=O)[C@H](C)NC(=O)[C@H](Cc2ccccc2)N(C)C(=O)[C@H](CC(C)C)NC(=O)[C@H](CCC2CCCCC2)NC1=O (cyclo(A[X2]FV[αMeP]VL[hCha]L[NMeF])) | 150 | 15.3 |  |  |  |  | 28 | 46 |  |  |
| CC(C)C[C@@H]1NC(=O)[C@H](C(C)C)NC(=O)[C@]2(C)CCCN2C(=O)[C@H](C(C)C)NC(=O)[C@H](Cc2ccccc2)NC(=O)CSCCNC(=O)[C@H](Cc2ccccc2)N(C)C(=O)[C@H](CC(C)C)NC(=O)[C@H](CCc2ccccc2)NC1=O (cyclo(FV[αMeP]VL[hPhe]L[NMeF][NHCH2CH2SCH2CO])) | 28 | 0.45 |  |  |  |  |  |  |  |  |
| CC(C)C[C@@H]1NC(=O)[C@H](C(C)C)NC(=O)[C@]2(C)CCCN2C(=O)[C@H](C(C)C)NC(=O)[C@H](Cc2ccccc2)NC(=O)CSCCNC(=O)[C@H](Cc2ccccc2)N(C)C(=O)[C@H](CC(C)C)NC(=O)[C@H](Cc2cccc3ccccc23)NC1=O (cyclo([1Nal]L[NMeF][NHCH2CH2SCH2CO]FV[αMeP]VL)) | 30 | 0.78 | 86 |  |  |  |  |  |  |  |
| CC(C)C[C@@H]1NC(=O)[C@H](C(C)C)NC(=O)[C@]2(C)CCCN2C(=O)[C@H](C(C)C)NC(=O)[C@H](Cc2ccccc2)NC(=O)CSCCNC(=O)[C@H](C)NC(=O)[C@H](Cc2ccccc2)N(C)C(=O)[C@H](CC(C)C)NC(=O)[C@H](CCC2CCCCC2)NC1=O (cyclo(A[NHCH2CH2SCH2CO]FV[αMeP]VL[hCha]L[NMeF])) | 24 | 0.28 |  | 1.6 | 0.001 | 0.8 | 8 | 53 |  |  |
| CC(C)C[C@@H]1NC(=O)[C@H](C(C)C)NC(=O)[C@]2(C)CCCN2C(=O)[C@H](C(C)C)NC(=O)[C@H](Cc2ccccc2)NC(=O)CSCCNC(=O)CNC(=O)[C@H](Cc2ccccc2)N(C)C(=O)[C@H](CC(C)C)NC(=O)[C@H](CCC2CCCCC2)NC1=O (cyclo(FV[αMeP]VL[hCha]L[NMeF]G[NHCH2CH2SCH2CO])) | 29 | 0.37 | 85 |  |  |  |  |  |  |  |
| CC(C)C[C@@H]1NC(=O)[C@H](C(C)C)NC(=O)[C@@H]2CCCN2C(=O)[C@H](C(C)C)NC(=O)[C@H](Cc2ccccc2)NC(=O)CSCCNC(=O)[C@H](Cc2ccccc2)N(C)C(=O)[C@H](CC(C)C)NC(=O)[C@H](Cc2c[nH]c3ccccc23)NC1=O (cyclo(FVPVLWL[NMeF][NHCH2CH2SCH2CO])) | 610 | 8.05 |  |  |  |  |  |  |  |  |
| CC(C)C[C@@H]1NC(=O)[C@H](C(C)C)NC(=O)[C@]2(C)CCCN2C(=O)[C@H](C(C)C)NC(=O)[C@H](Cc2ccccc2)NC(=O)CSCCNC(=O)[C@H](Cc2ccccc2)N(C)C(=O)[C@H](CC(C)C)NC(=O)[C@H](CCC2=CCC(F)(F)CC2)NC1=O (cyclo(FV[αMeP]VL[X3]L[NMeF][NHCH2CH2SCH2CO])) | 10 | 0.21 |  |  |  |  |  |  |  |  |
| CC(C)C[C@@H]1NC(=O)[C@H](C(C)C)NC(=O)[C@]2(C)CCCN2C(=O)[C@H](C(C)C)NC(=O)[C@H](Cc2ccccc2)NC(=O)CSCCNC(=O)[C@H](CC(C)C)NC(=O)[C@H](Cc2ccccc2)N(C)C(=O)[C@H](CC(C)C)NC(=O)[C@H](CCC2CCCCC2)NC1=O (cyclo(FV[αMeP]VL[hCha]L[NMeF]L[NHCH2CH2SCH2CO])) | 62 | 2.3 |  |  |  |  |  |  |  |  |
| CC(C)C[C@@H]1NC(=O)[C@H](C(C)C)NC(=O)[C@]2(C)CCCN2C(=O)[C@H](C(C)C)NC(=O)[C@H](Cc2ccccc2)NC(=O)CSCCNC(=O)[C@H](Cc2ccccc2)NC(=O)[C@H](Cc2ccccc2)N(C)C(=O)[C@H](CC(C)C)NC(=O)[C@H](CCC2CCCCC2)NC1=O (cyclo(FV[αMeP]VL[hCha]L[NMeF]F[NHCH2CH2SCH2CO])) | 56 | 2.32 |  |  |  |  |  |  |  |  |
